Key:
Tyk2 = molecular target: T1, Tyk2 (Homo sapiens, UniProt P29597); assay: Tyk2 enzyme inhibition test (LANCE method); type: biochemical; conditions: for inhibition at 1 µM: test compound 1 μM, read-out: Inhibitory rate (%) Tyk2 1 μM; for inhibition at 10 µM: test compound 10 μM, read-out: Inhibitory rate (%) Tyk2 10 μM
T1 construct: purchased Invitrogen
Method: Tyk2 Enzyme Inhibition Test
(§1) Tyk2 enzyme inhibitory activity of test compounds was measured by LANCE method (PerkinElmer). First, a test compound diluted with assay buffer (50 mM HEPES (pH=7.5), 10 mM MgCl2, 1 mM EGTA, 2 mM DTT, 0.01% Tween20, 0.01% BSA) was added to 384-well plate at 2 μL each. Then, a Tyk2 (Invitrogen) solution and a fluorescence-labeled peptide substrate (ULight-JAK1, PerkinElmer) solution diluted with assay buffer at 375 ng/mL and 300 nM, respectively were added at 2 μL each. Then, enzyme reaction was started by adding 2 μL each of ATP solution prepared with assay buffer at 30 μM. After the reaction at room temperature for 1 hr, Detection Buffer (PerkinElmer) prepared to be 20 mM EDTA, 4 nM europium-labeled anti-phosphotyrosine antibody (PerkinElmer) was added at 6 μL each. After standing at room temperature for 1 hr, fluorescence intensity (excitation wavelength 340 nm, fluorescence wavelength 665 nm, delay time 100 microsecond) was measured by a plate reader, Envision (PerkinElmer). The inhibitory activity of each compound was calculated as relative value where fluorescence intensity of a well without enzyme is considered as 100% inhibition.

JAK1 = molecular target: T2, JAK1 (Homo sapiens, UniProt P23458); assay: JAK1 enzyme inhibition test (LANCE method); type: biochemical; conditions: for inhibition at 1 µM: test compound 1 μM, read-out: Inhibitory rate (%) JAK1 1 μM
T2 construct: purchased Invitrogen
T2 sequence (P23458 whole entry): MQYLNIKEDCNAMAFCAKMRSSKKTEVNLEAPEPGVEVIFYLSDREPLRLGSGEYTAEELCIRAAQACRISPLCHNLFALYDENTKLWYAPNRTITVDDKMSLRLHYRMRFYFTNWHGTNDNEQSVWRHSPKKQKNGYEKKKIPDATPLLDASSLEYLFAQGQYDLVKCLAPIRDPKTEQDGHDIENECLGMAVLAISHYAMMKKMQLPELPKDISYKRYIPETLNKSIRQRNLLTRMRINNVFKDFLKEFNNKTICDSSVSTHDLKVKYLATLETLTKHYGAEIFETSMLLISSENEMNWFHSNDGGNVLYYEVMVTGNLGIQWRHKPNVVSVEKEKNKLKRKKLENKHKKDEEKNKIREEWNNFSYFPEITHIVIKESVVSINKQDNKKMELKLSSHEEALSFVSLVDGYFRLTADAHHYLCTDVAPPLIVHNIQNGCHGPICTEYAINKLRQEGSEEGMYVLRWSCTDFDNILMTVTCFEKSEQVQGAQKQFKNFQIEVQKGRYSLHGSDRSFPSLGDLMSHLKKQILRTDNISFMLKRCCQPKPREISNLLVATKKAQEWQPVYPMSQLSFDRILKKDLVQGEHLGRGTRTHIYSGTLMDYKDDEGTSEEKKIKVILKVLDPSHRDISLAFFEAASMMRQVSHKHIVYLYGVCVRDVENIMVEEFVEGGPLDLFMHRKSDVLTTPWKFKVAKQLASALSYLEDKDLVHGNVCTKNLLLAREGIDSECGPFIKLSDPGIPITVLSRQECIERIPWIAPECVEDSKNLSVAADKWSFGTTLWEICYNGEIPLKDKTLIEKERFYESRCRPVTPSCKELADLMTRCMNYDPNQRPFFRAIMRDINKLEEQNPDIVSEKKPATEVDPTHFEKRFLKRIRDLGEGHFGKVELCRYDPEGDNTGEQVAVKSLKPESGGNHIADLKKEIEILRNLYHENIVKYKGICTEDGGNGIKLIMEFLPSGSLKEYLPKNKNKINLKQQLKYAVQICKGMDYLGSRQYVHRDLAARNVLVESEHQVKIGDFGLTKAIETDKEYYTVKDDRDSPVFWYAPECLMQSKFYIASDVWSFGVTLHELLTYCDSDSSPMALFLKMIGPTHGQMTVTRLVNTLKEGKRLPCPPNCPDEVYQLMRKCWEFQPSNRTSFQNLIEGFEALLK
Method: JAK1 Enzyme Inhibition Test
as §1, with “JAK1 enzyme” for “Tyk2 enzyme”, “a JAK1” for “a Tyk2”, “at 187.5” for “at 375”, “at 150” for “at 30”

T1 sequence (P29597 whole entry): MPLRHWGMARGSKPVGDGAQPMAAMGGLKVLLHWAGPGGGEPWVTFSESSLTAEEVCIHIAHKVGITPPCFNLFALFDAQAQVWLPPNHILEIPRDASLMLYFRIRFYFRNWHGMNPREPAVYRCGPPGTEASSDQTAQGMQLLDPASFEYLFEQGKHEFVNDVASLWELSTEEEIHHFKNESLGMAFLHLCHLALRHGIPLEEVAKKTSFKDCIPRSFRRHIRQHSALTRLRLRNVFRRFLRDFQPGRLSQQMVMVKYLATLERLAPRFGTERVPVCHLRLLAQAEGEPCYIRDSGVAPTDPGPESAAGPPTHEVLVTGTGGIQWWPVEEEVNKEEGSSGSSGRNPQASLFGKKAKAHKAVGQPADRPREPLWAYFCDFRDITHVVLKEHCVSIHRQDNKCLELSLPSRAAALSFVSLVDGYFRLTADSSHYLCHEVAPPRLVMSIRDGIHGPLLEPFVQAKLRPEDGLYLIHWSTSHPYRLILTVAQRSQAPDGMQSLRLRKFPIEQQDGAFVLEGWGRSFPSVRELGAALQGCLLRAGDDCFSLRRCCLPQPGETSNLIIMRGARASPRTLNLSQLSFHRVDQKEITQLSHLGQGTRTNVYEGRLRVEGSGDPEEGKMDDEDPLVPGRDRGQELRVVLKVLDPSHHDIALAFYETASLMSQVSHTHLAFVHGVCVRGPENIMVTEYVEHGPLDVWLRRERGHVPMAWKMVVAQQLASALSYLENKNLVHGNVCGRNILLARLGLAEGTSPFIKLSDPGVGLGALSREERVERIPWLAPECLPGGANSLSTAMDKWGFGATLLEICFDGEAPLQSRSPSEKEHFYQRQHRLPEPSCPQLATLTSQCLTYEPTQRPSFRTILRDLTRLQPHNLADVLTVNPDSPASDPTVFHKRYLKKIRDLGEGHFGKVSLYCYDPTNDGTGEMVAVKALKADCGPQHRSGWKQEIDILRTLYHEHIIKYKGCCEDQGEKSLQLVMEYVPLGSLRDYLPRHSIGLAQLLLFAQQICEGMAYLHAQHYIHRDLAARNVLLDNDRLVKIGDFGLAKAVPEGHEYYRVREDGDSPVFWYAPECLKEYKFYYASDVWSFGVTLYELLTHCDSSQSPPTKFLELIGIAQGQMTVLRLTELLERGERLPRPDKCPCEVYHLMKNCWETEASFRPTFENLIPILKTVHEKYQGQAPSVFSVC

Row | SMILES | inhibition at 1 µM (Tyk2) | inhibition at 1 µM (JAK1) | inhibition at 10 µM (Tyk2) | inhibition at 10 µM (JAK1; test compound 10 μM, read-out: Inhibitory rate (%) JAK1 10 μM)
1 | O=c1[nH]ccc2c1c(-c1ccccc1)cn2C1CCCC1 [Example 1, 1-cyclopentyl-3-phenyl-1,5-dihydro-4H-pyrrolo[3,2-c]pyridin-4-one] | 51% | 40% | – | –
2 | NS(=O)(=O)c1ccc(-c2cn(C3CCCC3)c3cc[nH]c(=O)c23)cc1 [Example 2, 4-(1-cyclopentyl-4-oxo-4,5-dihydro-1H-pyrrolo[3,2-c]pyridin-3-yl)benzenesulfonamide] | 97% | 99% | – | –
3 | COC(=O)c1cc(-c2cn(C3CCCC3)c3cc[nH]c(=O)c23)cs1 [Example 3, methyl 4-(1-cyclopentyl-4-oxo-4,5-dihydro-1H-pyrrolo[3,2-c]pyridin-3-yl)thiophene-2-carboxylate] | 96% | 97% | – | –
4 | NC(=O)c1cc(-c2cn(C3CCCC3)c3cc[nH]c(=O)c23)cs1 [Example 4, 4-(1-cyclopentyl-4-oxo-4,5-dihydro-1H-pyrrolo[3,2-c]pyridin-3-yl)thiophene-2-carboxamide] | 99% | 99% | – | –
5 | O=c1[nH]ccc2c1c(-c1ccsc1)cn2C1CCCC1 [Example 5, 1-cyclopentyl-3-(3-thienyl)-1,5-dihydro-4H-pyrrolo[3,2-c]pyridin-4-one] | 96% | 97% | – | –
6 | NS(=O)(=O)c1ccc(-c2nn(C3CCCCC3)c3cc[nH]c(=O)c23)cc1 [Example 6, 4-(1-cyclohexyl-4-oxo-4,5-dihydro-1H-pyrazolo[4,3-c]pyridin-3-yl)benzenesulfonamide] | 99% | 98% | – | –
7 | CCC(CC)n1cc(-c2csc(C(=O)OC)c2)c2c(=O)[nH]ccc21 [Example 7, methyl 4-(4-oxo-1-(pentan-3-yl)-4,5-dihydro-1H-pyrrolo[3,2-c]pyridin-3-yl)thiophene-2-carboxylate] | 90% | 95% | – | –
8 | CCC(CC)n1cc(-c2csc(C(N)=O)c2)c2c(=O)[nH]ccc21 [Example 8, 4-(4-oxo-1-(pentan-3-yl)-4,5-dihydro-1H-pyrrolo[3,2-c]pyridin-3-yl)thiophene-2-carboxamide] | 98% | 98% | – | –
9 | CCC(CC)n1cc(-c2csc(C#N)c2)c2c(=O)[nH]ccc21 [Example 9, 4-(4-oxo-1-(pentan-3-yl)-4,5-dihydro-1H-pyrrolo[3,2-c]pyridin-3-yl)thiophene-2-carbonitrile] | 93% | 97% | – | –
10 | O=c1[nH]ccc2c(-c3ccccc3)nn(-c3ccccc3)c12 [Example 10, 1,3-diphenyl-1,6-dihydro-7H-pyrazolo[3,4-c]pyridin-7-one] | – | – | 38% | –
11 | O=c1[nH]ccc2c(-c3ccccc3)nn(-c3ccsc3)c12 [Example 11, 3-phenyl-1-(3-thienyl)-1,6-dihydro-7H-pyrazolo[3,4-c]pyridin-7-one] | 66% | 55% | – | –
12 | COC(=O)c1cc(-c2nn(C3CCCC3)c3cc[nH]c(=O)c23)cs1 [Example 12, methyl 4-(1-cyclopentyl-4-oxo-4,5-dihydro-1H-pyrazolo[4,3-c]pyridin-3-yl)thiophene-2-carboxylate] | 98% | 98% | – | –
13 | NC(=O)c1cc(-c2nn(C3CCCC3)c3cc[nH]c(=O)c23)cs1 [Example 13, 4-(1-cyclopentyl-4-oxo-4,5-dihydro-1H-pyrazolo[4,3-c]pyridin-3-yl)thiophene-2-carboxamide] | 99% | 99% | – | –
14 | N#Cc1cc(-c2nn(C3CCCC3)c3cc[nH]c(=O)c23)cs1 [Example 14, 4-(1-cyclopentyl-4-oxo-4,5-dihydro-1H-pyrazolo[4,3-c]pyridin-3-yl)thiophene-2-carbonitrile] | 98% | 99% | – | –
15 | NS(=O)(=O)c1ccc(-c2nn(C3CCOCC3)c3cc[nH]c(=O)c23)cc1 [Example 15, 4-(4-oxo-1-(tetrahydro-2H-pyran-4-yl)-4,5-dihydro-1H-pyrazolo[4,3-c]pyridin-3-yl)benzenesulfonamide] | 97% | 99% | – | –

Further lines, results first:

Row | inhibition at 1 µM (Tyk2) | inhibition at 1 µM (JAK1) | inhibition at 10 µM (Tyk2) | inhibition at 10 µM (JAK1; test compound 10 μM, read-out: Inhibitory rate (%) JAK1 10 μM) | SMILES
16 | 97% | 99% | – | – | C[C@H]1CCC[C@H]1n1cc(-c2ccc(S(N)(=O)=O)cc2)c2c(=O)[nH]ccc21 (relative stereo) [Example 71, 4-(1-(cis-2-methylcyclopentyl)-4-oxo-4,5-dihydro-1H-pyrrolo[3,2-c]pyridin-3-yl)benzenesulfonamide]
17 | 100% | 90% | – | – | C[C@H]1CCC[C@H]1n1cc(-c2csc(C(N)=O)c2)c2c(=O)[nH]ccc21 (relative stereo) [Example 85, 4-(1-(cis-2-methylcyclopentyl)-4-oxo-4,5-dihydro-1H-pyrrolo[3,2-c]pyridin-3-yl)thiophene-2-carboxamide]
18 | 88% | 93% | – | – | NS(=O)(=O)c1ccc(-c2cn(C3CCOCC3)c3cc[nH]c(=O)c23)cc1 [Example 16, 4-(4-oxo-1-(tetrahydro-2H-pyran-4-yl)-4,5-dihydro-1H-pyrrolo[3,2-c]pyridin-3-yl)benzenesulfonamide]
19 | 69% | 87% | – | – | CCC(COC)n1cc(-c2ccc(S(N)(=O)=O)cc2)c2c(=O)[nH]ccc21 (stereo not shown) [Example 17, 4-(1-(1-methoxybutan-2-yl)-4-oxo-4,5-dihydro-1H-pyrrolo[3,2-c]pyridin-3-yl)benzenesulfonamide]
20 | 80% | 93% | – | – | NS(=O)(=O)c1ccc(-c2cn(C3CCOC3)c3cc[nH]c(=O)c23)cc1 (stereo not shown) [Example 18, 4-(4-oxo-1-(tetrahydrofuran-3-yl)-4,5-dihydro-1H-pyrrolo[3,2-c]pyridin-3-yl)benzenesulfonamide]
21 | – | – | 27% | 44% | NS(=O)(=O)c1ccc(Cn2nc(-c3ccccc3)c3cc[nH]c(=O)c32)cc1 [Example 19, 4-((7-oxo-3-phenyl-6,7-dihydro-1H-pyrazolo[3,4-c]pyridin-1-yl)methyl)benzenesulfonamide]
22 | 35% | 59% | – | – | CCC(COC)n1cc(-c2ccc(CC#N)cc2)c2c(=O)[nH]ccc21 (stereo not shown) [Example 20, (4-(1-(1-methoxybutan-2-yl)-4-oxo-4,5-dihydro-1H-pyrrolo[3,2-c]pyridin-3-yl)phenyl)acetonitrile]
23 | 95% | 97% | – | – | COC(=O)c1cc(-c2nn(C3CCOCC3)c3cc[nH]c(=O)c23)cs1 [Example 21, methyl 4-(4-oxo-1-(tetrahydro-2H-pyran-4-yl)-4,5-dihydro-1H-pyrazolo[4,3-c]pyridin-3-yl)thiophene-2-carboxylate]
24 | 53% | 77% | – | – | N#CCc1ccc(-c2cn(C3CCOC3)c3cc[nH]c(=O)c23)cc1 (stereo not shown) [Example 22, (4-(4-oxo-1-(tetrahydrofuran-3-yl)-4,5-dihydro-1H-pyrrolo[3,2-c]pyridin-3-yl)phenyl)acetonitrile]
25 | 98% | 98% | – | – | O=C(O)c1cc(-c2nn(C3CCOCC3)c3cc[nH]c(=O)c23)cs1 [Example 23, 4-(4-oxo-1-(tetrahydro-2H-pyran-4-yl)-4,5-dihydro-1H-pyrazolo[4,3-c]pyridin-3-yl)thiophene-2-carboxylic acid]

Source: US9371320B2, “Heterocyclic compound” (TAKEDA PHARMACEUTICAL COMPANY LIMITED, priority 2012, dated 2016)
